Where two headings read alike, the source gives them in different places. Marks after values point to notes of the source that are not given here.
Experiments:
Human thrombin = target: T1, Human thrombin (Homo sapiens, UniProt P00734); assay: Thrombin induced hydrolysis of specific substrates in buffer system; format: biochemical
T1 construct: Human thrombin (8.3 mg/ml) was obtained from Hematologic Technologies Inc; purchased Hematologic Technologies Inc. (Essex Junction, VT, USA)
Method: The kinetics of thrombin inhibition was determined from the hydrolysis reaction of a specific substrate by thrombin in the presence of the tested substances. The chromogenic substrate (Tosyl-Gly-Pro-Arg-p-nitroanilide) or fast fluorogenic substrate (BOC-Ala-Pro-Arg-AMC) was used.
Plate wells were filled with 20 mM HEPES (pH 8.0) containing 140 mM NaCl and 0.1% polyethylene glycol (molecular weight 6000 Da). Thereafter, substrate was sequentially added to each well (final concentration, 100 µM), followed by the substance being tested (to a final concentration that was varied) and thrombin (final concentration, 0.2 nM). The hydrolysis rate was monitored spectrophotometrically at 405 nm (absorption maximum of the reaction product – p-nitroaniline), or fluorometrically (λex = 380 nm; λem = 440 nm for fluorescent reaction product 7-amino-4-methylcoumarine).
The initial rate was determined as the slope of the linear portion of the kinetic curve over the first 10 to 20 min of measurement. The inhibitory effect was expressed as the percentage reduction of the initial hydrolysis rate. The reaction rate in the absence of inhibitor was taken as 100%. Each result is the mean of two parallel determinations.
The inhibitor concentration was determined decreasing hydrolysis rate to 50% (IC50). Values of the inhibition constants were calculated on the assumption about competitive mechanism of inhibition using equation (1) [drawing 1] (1) where: KI - the constant of inhibition,
• S - the concentration of a substrate (100 µM), • KM - the Michaelis constant of a specific substrate for thrombin (9.44 µM, average from ref. [23], [24] and our measurements for chromogenic and 13 µM for the fluorogenic substrate, respectively).

[1] = system: thrombin generation in normal donor plasma (PPP); assay: Thrombin generation test in plasma (endogenous thrombin potential, ETP); format: biochemical, human
Method: The kinetics of thrombin generation in plasma was monitored using a modification of the standard method using a slow fluorogenic substrate BOC-Ile-Gly-Arg-AMC [8]. Normal donor plasma (PPP) was placed in the wells (90 µl/well) of a 96-well flat-bottom microtiter plate, after which 10 µl of the substance solution to be tested was added in different concentrations, along with 10 µl of the slow fluorogenic substrate (initial concentration 5 mM). In the control wells (without inhibitor), 10 µl of the solvent used was added (20 mM HEPES, pH 7.5 and 140 mM NaCl; or pure ethanol, or dimethylsulfoxide (DMSO) for different substances). The samples were incubated at 37°C for 3–5 min before being activated with thromboplastin, which was a 1∶250 dilution of a standard prothrombin time reagent (Renam, Moscow, Russia) in the same buffer supplemented with 90 mM CaCl2. The final concentration of tissue factor during activation was about 4 pM. Thromboplastin (25 µl) was added to all wells simultaneously using a multichannel micropipette. The moment of thromboplastin addition was taken as time zero. The kinetics of accumulation of the fluorescent reaction product 7-amino-4-methylcoumarine (AMC) was recorded for 65 min with a fluorometric Fluoroscan II reader (LabSystem, Finland) (λex. = 380 nm; λem. = 440 nm). The results were averaged over two parallel samples. The error of parallel measurements was within 2–5%. At every moment, the rate of product accumulation is proportional to the instant thrombin concentration present in plasma. Therefore, the curve for the temporal evolution of thrombin in the system may be obtained using differentiation of the curve for AMC accumulation. For each sample, arbitrary fluorescence units were converted to absolute AMC concentrations using the calibration signal obtained by adding a known AMC concentration into each particular plasma sample in the presence of the fluorogenic substrate and the tested substance. The corrections were done taking into account the substrate consumption and the nonlinearity of the AMC calibration curve. The area under the thrombin time curve over a period of 60 min (endogenous thrombin potential, ETP) was determined.

C57Bl/6 mice [2] = assay: Acute toxicity in mice; format: in vivo, mouse; conditions: females, mortality after 2 or less hours
Method: Preliminary safety examination for the best synthesized inhibitors was carried out by measuring their acute toxicity in C57Bl/6 mice (females, 26–28 g, intraperitoneal administration). The total number of animals used in each experiment was 20–35. The dose of inhibitor that caused mortality in half of the animals after 2 or less hours (LD50) was determined. […] For administration of different doses of an inhibitor, different volumes of the initial stock inhibitor solution were supplemented with corresponding volumes of vehicle (20% cremophore EL in normal saline) to obtain a constant administered volume of 1.8 ml in each case. To obtain the highest doses of inhibitors, the animals were injected with 2.3 ml of stock inhibitor solutions instead.

[3] = system: hemodilution-induced hypercoagulation in rats; assay: Model of hemodilution-induced hypercoagulation in rats; format: in vivo, rat; conditions: 23.0±4.5% blood loss, infusion of saline supplemented with 2 µM inhibitor, 10, 30 or 60 min after infusion
Method: In particular, 200 µl of PPP samples were placed in the wells of a 96-well plate. Then, 2 µl of a solution of fluorogenic substrate BOC-Ile-Gly-Arg-AMC in DMSO (initial concentration 41 mM) was added, and coagulation was triggered by 3 µl of activator, which was a 1∶20 dilution of a standard prothrombin time reagent (Renam, Moscow, Russia) in the buffer (20 mM HEPES, 140 mM NaCl, pH 7.5) supplemented with 1.4 M CaCl2. Measurement of fluorescence (120 min) and processing of the results obtained were carried out by the methods described earlier.
The anticoagulation activity of one of the new thrombin inhibitors (4i) was studied in vivo in a newly developed model of hemodilution-induced hypercoagulation in rats. Experiments were carried out on male outbred white rats weighing 250–450 g and housed in a vivarium. A polyethylene cannula was implanted into the right femoral artery of the rats, which were anesthetized with thiopental (40 mg/kg of body weight, i.p.), to a depth of 4–5 cm. […] Coagulation was analyzed in samples of blood collected before hemodilution for all animals. […] The volume of blood loss was calculated on the assumption that the total blood volume of the rat is equal to 6.5% of the body weight.

C57Bl/6 mice [4] = conditions: ref [38]; cited from earlier work
[5] = system: thrombin generation in normal donor plasma (PPP); conditions: ref [36], [37], read-out: IC50 for ETP reduction; cited from earlier work
[6] = chromogenic substrate (SCHR), calculated assuming competitive type of inhibition, read-out: Inhibition of thrombin activity (in buffer system) Ki
[7] = chromogenic substrate (SCHR), read-out: Inhibition of thrombin activity (in buffer system) IC50
[8] = Table S2, read-out: IC50 for ETP reduction in plasma
[9] = chromogenic substrate Tosyl-Gly-Pro-Arg-p-nitroanilide, calculated assuming competitive inhibition, KM 9.44 µM, read-out: KI for thrombin inhibition in buffer system
[10] = ETP reduction by 50% in plasma in vitro, read-out: IC50 for reduction of thrombin generation in plasma
[11] = fast fluorogenic substrate (SFLUO), 100 µM, thrombin 0.2 nM, read-out: Inhibition of specific thrombin substrate hydrolysis in buffer system IC50
[12] = fast fluorogenic substrate (SFLUO), calculated from IC50 assuming a competitive mechanism of inhibition, read-out: Inhibition of specific thrombin substrate hydrolysis in buffer system KI

Row | SMILES | IC50 (Human thrombin; [7]) [nM] | Ki (Human thrombin; [9]) [nM] | IC50 [1, 10] [nM] | LD50 (mouse), intraperitoneal administration (C57Bl/6 mice [2]) | also measured
1 | Cc1cc(OCCC[n+]2ccc(N)cc2)cc(OS(=O)(=O)c2ccccc2Cl)c1 [4d] | 3400 | – | – | – | Ki (Human thrombin; [6]): 293 nM; IC50 [1, 8]: 40000 nM
2 | Cc1cc(OCC[n+]2ccc(N)cc2)cc(OS(=O)(=O)c2ccccc2F)c1.[I-] [4e] | 3.5 | 0.3 | 100 | 523.1 ± 92.3 mg/kg | –
3 | Cc1cc(OCC[n+]2ccc(N)cc2)cc(OS(=O)(=O)c2ccccc2Cl)c1.[I-] [4f] | 2.44 | 0.21 | 260 | 679.0 ± 152.7 mg/kg | –
4 | Cc1cc(OCC[n+]2ccc(N)cc2)cc(OS(=O)(=O)c2ccccc2S(C)(=O)=O)c1.[I-] [4g] | 8.7 | 0.75 | 160 | 166.7 ± 20.0 mg/kg | –
5 | Cc1cc(OCC[n+]2ccc(N)cc2)cc(OS(=O)(=O)c2ccc(Cl)cc2)c1.[I-] [4h] | 9 | 0.78 | 150 | 372.7 ± 84.6 mg/kg | –
6 | Cc1cc(OCC[n+]2ccc(N)cc2)cc(OS(=O)(=O)c2ccccc2)c1.[I-] [4i] | 9 | 0.78 | 250 | 418.9 ± 33.0 mg/kg | Effect on development of hypercoagulation (change of ETP relative to initial level) [3]: canceled the hypercoagulation effect of hemodilution
7 | Cc1cc(OCCCSC(=N)N)cc(OS(=O)(=O)c2ccccc2)c1 [8a] | 97 | – | – | – | Ki (Human thrombin; [6]): 8.4 nM; IC50 [1, 8]: 8000 nM
8 | Cc1cc(OCCSC(=N)N)cc(OS(=O)(=O)c2ccccc2S(C)(=O)=O)c1.I [8b] | 17 | 1.5 | 800 | >458.0 ^5) mg/kg | –
9 | Cc1cc(OCCSC(=N)N)cc(OS(=O)(=O)c2ccccc2Cl)c1.I [8c] | 3.8 | 0.33 | 160 | 793.5 ± 118.5 mg/kg | –
10 | Cc1cc(OCCSC(=N)N)cc(OS(=O)(=O)c2ccccc2)c1.I [8d] | 11 | 0.95 | 900 | >1111.1 mg/kg | –
11 | Cc1cc(OCCCSC(=N)N)cc(OS(=O)(=O)c2ccccc2Cl)c1 [8e] | 11.6 | – | – | – | Ki (Human thrombin; [6]): 1 nM; IC50 [1, 8]: 4100 nM
12 | Cc1cc(OCCCSC(=N)N)cc(OS(=O)(=O)c2ccccc2F)c1.I [8f] | 23.5 | 2.03 | 1240 | >653.1 ^5) mg/kg | –
13 | CNC(=N)SCCCOc1cc(C)cc(OS(=O)(=O)c2ccccc2Cl)c1 [8g] | 5500 | – | – | – | Ki (Human thrombin; [6]): 474 nM; IC50 [1, 8]: 25200 nM
14 | CNC(=N)SCCOc1cc(C)cc(OS(=O)(=O)c2ccccc2Cl)c1.I [8h] | 65.8 | 5.7 | 530 | >287.0 ^5) mg/kg | –
15 | CC1CNc2c(cccc2S(=O)(=O)N[C@@H](CCCNC(=N)N)C(=O)N2CC[C@@H](C)C[C@@H]2C(=O)O)C1 (stereo partly drawn) [Argatroban] | – | – | 650 | – | LD50 (mouse), intraperitoneal administration (C57Bl/6 mice [4]): 475 mg/kg; IC50 [5]: 600 to 970 nM
16 | CC(C)(C)CC(C)(C)c1ccc(OCCSC(=N)N)cc1 [NSC 4482] | – | – | – | – | IC50 (Human thrombin; [11]): 3450 nM; Ki (Human thrombin; [12]): 400 nM
17 | CC12CCC3C(CC=C4CC(SC(=N)N)CCC43C)C1CCC2=O (stereo not drawn) [NSC 41339] | – | – | – | – | IC50 (Human thrombin; [11]): 240000 nM; Ki (Human thrombin; [12]): 27600 nM
18 | CC(=O)C1CCC2C3CC=C4CC(SC(=N)N)CCC4(C)C3CCC12C (stereo not drawn) [NSC 123477] | – | – | – | – | IC50 (Human thrombin; [11]): 75000 nM; Ki (Human thrombin; [12]): 8600 nM
19 | N=C(N)c1ccc(-c2ccc(-c3ccc(C(=N)N)cc3)o2)cc1 [NSC 305831] | – | – | – | – | IC50 (Human thrombin; chromogenic substrate (SCHR), 100 µM, thrombin 0.2 nM, read-out: Inhibition of specific thrombin substrate hydrolysis in buffer system IC50): 72000 nM; Ki (Human thrombin; chromogenic substrate (SCHR), calculated from IC50 assuming a competitive mechanism of inhibition, read-out: Inhibition of specific thrombin substrate hydrolysis in buffer system KI): 6200 nM
20 | Cc1ccc2nc(-c3ccc(CSC(=N)N)cc3)oc(=O)c2c1 [NSC 328131] | – | – | – | – | IC50 (Human thrombin; [11]): ~35000 nM; Ki (Human thrombin; [12]): 4000 nM
